{"source": "patent US20150299614A1", "about": "“IMPROVEMENTS IN OR RELATING TO ORGANIC COMPOUNDS” (Givaudan, S.A., priority 2012, published 2015)", "key": {"[1]": {"assay": "Odour perception threshold", "details": "in air"}, "[2]": {"assay": "Colour stability in fine fragrance (ethanol solution, indoor daylight)", "assay_type": "physicochemical", "details": "1 and 0.5% wt/wt in 96% EtOH, glass vials, visual inspection", "method": "A solution of the test compound (compound of formula (I) specified in the Table below) was prepared in perfumery grade ethanol (96% EtOH, 4% water) at 1 and 0.5% wt/wt. The solutions were placed in 2.5 ml transparent glass vials closed with plastic lids. The vials were placed behind a window exposed to indoor daylight. The colour of the solutions was inspected visually over a 1 month period."}, "[3]": {"assay": "Colour stability in bar soap", "assay_type": "physicochemical", "details": "tallow toilet soap, 2% wt/wt of a 10% wt/wt solution in DPG, 1 month at 45° C.", "method": "The extruded 24×8 mm soap string was cut into 8 cm pieces, which were placed in a thermostated oven for 1 month at 45° C. A control sample containing no fragrance was added to the stability test series."}, "[4]": {"system": "KeratinoSens™ cell line (Luciferase gene under the control of the ARE-element of the gene AKR1C2)", "assay": "KeratinoSens assay for skin sensitization (luciferase gene induction)", "assay_type": "cell-based", "details": "for luciferase gene induction relative to the 1.5-fold threshold: 48 h incubation, 0.98 to 2000 μM, FIG. 1; for skin sensitization rating by the KeratinoSens assay: positive if EC1.5 below 1000 μM, viability above 70%, dose-response", "method": "The KeratinoSens™ cell line contains a stable insertion of a Luciferase gene under the control of the ARE-element of the gene AKR1C2. The optimization of this cell line and the standard method to test chemicals has been described in detail in Emter et. al. 2010 (Emter R., Ellis G., Natsch A., 2010 “Performance of a novel keratinocyte-based reporter cell line to screen skin sensitizers in vitro. Toxicol Appl Pharmacol 245, 281-290). Cells were grown for 24 h in 96-well plates. The medium was then replaced with medium containing the test chemical and the solvent Dimethylsulfoxide (DMSO) at a final level of 1%. Each compound was tested at 12 binary dilutions in the range from 0.98 to 2000 μM. In each repetition, three parallel replicate plates were run with this same set-up and a fourth parallel plate was prepared for cytotoxicity determination using an MTT assay. Cells were incubated for 48 h with the test agents, and then luciferase activity and cytotoxicity were determined. This full procedure was repeated at least three times for each chemical. For each chemical in each repetition and at each concentration, the gene induction compared to DMSO controls and the wells with statistically significant induction over the threshold of 1.5 (i.e. 50% enhanced gene activity) were determined. Furthermore the maximal fold-induction (Imax) and the EC1.5 value (concentration in μM for induction above the threshold) were calculated. Chemicals are rated as positive (i.e. likely skin-sensitizers) in the assay if the following three criteria are fulfilled (i) The EC1.5 value is below 1000 μM in all three repetitions or in at least 2 repetitions, (ii) at the lowest concentration with a gene induction above 1.5 fold (i.e. at the EC 1.5 determining value), the cellular viability is above 70% and (iii) there is an apparent overall dose-response for luciferase induction, which is similar between the repetitions."}, "KeratinoSens™ cell line": {"system": "KeratinoSens™ cell line", "assay": "Cytotoxicity determination using an MTT assay in the KeratinoSens assay", "assay_type": "cell-based", "details": "48 h, oxime: no significant cytotoxicity up to the value, Isoeugenol: cytotoxic above the value", "method": "The KeratinoSens™ cell line contains a stable insertion of a Luciferase gene under the control of the ARE-element of the gene AKR1C2. The optimization of this cell line and the standard method to test chemicals has been described in detail in Emter et. al. 2010 (Emter R., Ellis G., Natsch A., 2010 “Performance of a novel keratinocyte-based reporter cell line to screen skin sensitizers in vitro. Toxicol Appl Pharmacol 245, 281-290). Cells were grown for 24 h in 96-well plates. The medium was then replaced with medium containing the test chemical and the solvent Dimethylsulfoxide (DMSO) at a final level of 1%. Each compound was tested at 12 binary dilutions in the range from 0.98 to 2000 μM. In each repetition, three parallel replicate plates were run with this same set-up and a fourth parallel plate was prepared for cytotoxicity determination using an MTT assay. Cells were incubated for 48 h with the test agents, and then luciferase activity and cytotoxicity were determined. […] For each chemical in each repetition and at each concentration, the gene induction compared to DMSO controls and the wells with statistically significant induction over the threshold of 1.5 (i.e. 50% enhanced gene activity) were determined. Furthermore the maximal fold-induction (Imax) and the EC1.5 value (concentration in μM for induction above the threshold) were calculated. […]"}, "[5]": {"assay": "Colour stability in colourless consumer base", "assay_type": "physicochemical", "details": "dosed in a colourless consumer base at 0.02%, storage 4 weeks at 45 ° C.", "method": "By the term “colour stable” is meant that when dosed in a colourless consumer base at 0.02% and held under storage for 4 weeks at 45 ° C., bases containing the compounds of formula (I) remain colourless upon visual inspection. On the other hand, bases containing iso-eugenol and iso-eugenol “[…]” such as vanillin at the same concentration were discoloured, variously appearing to have yellowish, orange, […] or brown hues."}}, "data": [{"smiles": "CO/N=C/CC(C)c1cccc(C(C)C)c1", "note": "(centres unmarked) [E)-3-(3-isopropylphenyl)butanal O-methyl oxime]", "values": [{"measurement": "perception threshold", "setting": "[1]", "result": 22.4, "unit": "ng/L"}]}, {"smiles": "CCOc1cc(C=O)ccc1O", "note": "[Ethyl Vanillin]", "values": [{"measurement": "Colour of ethanol solution after 1 month", "setting": "[2]", "result": "yellow"}, {"measurement": "Colour of ethanol solution after 1 month", "setting": "[2]; listed as ethyl vanillin", "result": "unacceptable yellow colour"}, {"measurement": "colour of soap after one month", "setting": "[3]", "result": "chocolate brown"}]}, {"smiles": "CC/C=C\\CC/C=C/C=O", "note": "[(2E,6Z)-nona-2,6-dienal]", "values": [{"measurement": "perception threshold", "setting": "[1]", "result": 0.06, "unit": "ng/L"}]}, {"smiles": "CCOc1cc(C=NOC)ccc1O", "note": "[Cpd I (R1 = Et, R2 = Me), 3-ethoxy-4-hydroxybenzaldehyde O-methyl oxime]", "values": [{"measurement": "Colour of ethanol solution after 1 month", "setting": "[2]", "result": "colourless"}, {"measurement": "Colour of ethanol solution after 1 month", "setting": "[2]; listed as compound I", "result": "would have passed the requirements for colourless fine fragrance"}, {"measurement": "colour of soap after one month", "setting": "[3]", "result": "remained as control"}, {"measurement": "luciferase gene induction relative to the 1.5-fold threshold", "setting": "[4]", "result": "did not induce luciferase activity above the 1.5-fold threshold"}, {"measurement": "skin sensitization rating by the KeratinoSens assay", "setting": "[4]", "result": "non-sensitizing"}, {"measurement": "concentration above which cytotoxic (cell viability)", "setting": "KeratinoSens™ cell line", "result": "> 1000", "unit": "µM"}]}, {"smiles": "COc1cc(C=O)ccc1O", "note": "[Vanillin]", "values": [{"measurement": "Colour of ethanol solution after 1 month", "setting": "[2]", "result": "yellow"}, {"measurement": "Colour of ethanol solution after 1 month", "setting": "[2]; listed as vanillin", "result": "unacceptable yellow colour"}, {"measurement": "colour of consumer base upon visual inspection", "setting": "[5]", "result": "discoloured"}]}, {"smiles": "CC=Cc1ccc(O)c(OC)c1", "note": "[Isoeugenol]", "values": [{"measurement": "luciferase gene induction relative to the 1.5-fold threshold", "setting": "[4]", "result": "clearly induces the gene already in the lower micromolar range"}, {"measurement": "skin sensitization rating by the KeratinoSens assay", "setting": "[4]", "result": "sensitizing"}, {"measurement": "concentration above which cytotoxic (cell viability)", "setting": "KeratinoSens™ cell line", "result": "above 500 micromolar"}, {"measurement": "colour of consumer base upon visual inspection", "setting": "[5]", "result": "discoloured"}]}, {"smiles": "CC(C)c1cccc(C(C)CC=O)c1", "note": "(centres unmarked) [3-(3-isopropylphenyl)butanal]", "values": [{"measurement": "perception threshold", "setting": "[1]", "result": 0.07, "unit": "ng/L"}]}, {"smiles": "CC/C=C\\CC/C=C/C=N/OC", "note": "[(1E,2E,6Z)-nona-2,6-dienal O-methyl oxime]", "values": [{"measurement": "perception threshold", "setting": "[1]", "result": 2.94, "unit": "ng/L"}]}]}
